US20080076760A1, “2,3,4,5-TETRAHYDRO-1H-1,5-BENZODIAZEPINE DERIVATIVE AND MEDICINAL COMPOSITION” (priority 2004, published 2008)
Counter-ions that a name gives are not always drawn.

How the values were obtained:
V1a receptor = target: T1, V1a receptor (Rattus norvegicus, UniProt P30560); assay: V1a receptor antagonism in awake rat (oral administration), inhibition of AVP-induced vasopressure; format: in vivo; conditions: for AVP vasopressure inhibition effect after 8 hours since administration: 8 hours after administration; for maximum vasopressure inhibition rate: one third of the 3 mg/kg SR49059 dose, maximum after 2 to 6 hours since administration, 30 mU/kg AVP i.v.
T1 construct: from tissue; host or cells: whole animal: awake male Sprague-Dawley rats
T1 sequence (P30560 whole entry): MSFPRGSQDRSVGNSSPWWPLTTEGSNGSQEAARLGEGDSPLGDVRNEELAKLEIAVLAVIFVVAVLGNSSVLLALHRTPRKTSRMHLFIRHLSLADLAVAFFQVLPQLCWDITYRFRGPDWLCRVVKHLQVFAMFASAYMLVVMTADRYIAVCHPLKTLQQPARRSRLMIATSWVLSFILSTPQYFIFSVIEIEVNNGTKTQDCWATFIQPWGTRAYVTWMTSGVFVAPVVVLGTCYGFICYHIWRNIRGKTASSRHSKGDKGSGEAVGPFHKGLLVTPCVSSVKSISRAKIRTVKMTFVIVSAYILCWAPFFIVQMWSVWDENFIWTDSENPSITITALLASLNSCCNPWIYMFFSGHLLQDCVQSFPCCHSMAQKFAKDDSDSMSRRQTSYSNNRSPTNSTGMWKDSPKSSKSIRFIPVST
Protocol: One day before evaluation of test compounds, a cannula for blood pressure measurement was inserted into left carotid artery, and a cannula for arginine vasopressin (AVP) administration was inserted into left cervical vein. Blood pressure of artery cannula was measured via pressure transducer during rats were awake. During evaluation of test compounds, elevation breadth of mean blood pressure resulting from intravenous administration of 30 mU/kg of AVP was determined as a vasopressure control, in advance. After test compound was suspended in 0.5% methylcellulose solution and orally administered at 1 to 3 mg/kg, 30 mU/kg of AVP was intravenously administered at fixed time points from 0.5 to 8 hours, and vasopressure value was measured. [Vasopressure inhibition rate (%) at each measurement point after administration]=[(A−B)/A]×100 Wherein, control vasopressure=A, and vasopressure value at each measurement point=B

male ICR mice = assay: Acute toxicity study, oral, male ICR mice; format: in vivo, mouse; conditions: single administration in 0.5% methylcellulose, observed 6 days
Protocol: Test compound suspended in 0.5% methylcellulose solution was orally administered to male ICR mice (body weight 25 to 35 g), which were separated into groups each having 5 mice, and body weight change and general symptom after 6 days since administration were observed. During the test period except for 17 to 20 hours before administration and after 2 hours since administration, mice were allowed to take feed and water ad libitum.

| Compound | AVP vasopressure inhibition effect after 8 hours since administration (V1a receptor) | maximum vasopressure inhibition rate (V1a receptor) | Toxicity expressing dose (male ICR mice) |
| --- | --- | --- | --- |
| CCCN(C)CCCCOc1cc(C(=O)N2CC[C@H](C)Nc3ccccc32)ccc1-c1ccc2[nH]ccc2c1 [117 fumarate] | significant AVP vasopressure inhibition effect | 77.7% | >300 mg/kg |
| CCCCN1CCN(CCCOc2cc(C(=O)N3CC[C@H](C)Nc4ccccc43)ccc2-c2ccc3[nH]ccc3c2)CC1 [122 maleate] | significant AVP vasopressure inhibition effect | 67.3% | >300 mg/kg |
